Reference: patent US20080090893A1, “Medicinal Composition for Prevention of Transition to Operative Treatment for Prostatic Hypertrophy” (Kissei Pharmaceutial Co., Ltd., priority 2004, published 2008)
Structures can show the parent of a compound that is named as a salt.

How the values were obtained:
[1] = tested on: patients of benign prostatic hyperplasia who are subject to surgical therapy (overall severity severe); assay: Placebo-controlled, parallel groups-comparing double blind trial, 12 weeks oral administration (I-PSS total score, QOL score); type: in vivo
Experimental: Based on the results of a placebo-controlled, parallel groups-comparing double blind trial carried out in patients of benign prostatic hyperplasia, clinical effects of silodosin and tamsulosin hydrochloride in patients who are subject to surgical therapy were evaluated. As the patients who are subject to surgical therapy, patients whose overall severity before administration was “severe” based on the criteria for judging overall severity (Non-patent Reference 3) were extracted.
Objects: 147 patients who are subject to surgical therapy for benign prostatic hyperplasia
Administration method: oral administration for 12 weeks
Administered groups: Silodosin group (4 mg silodosin/once, twice a day, 63 patients), Tamsulosin group (0.2 mg tamsulosin hydrochloride, once a day, 55 patients) and Placebo group (placebo drug, 29 patients).
Primary endpoints: I-PSS total score, QOL score
Criteria for judging overall severity: in the severity of respective judging items shown in Table 1, the overall severity is regarded as “severe” when “severe” is present in 2 items or more. In this connection, the Qmax in the table means maximum flow rate (mL/second), RU means residual urine volume (mL) and PV means estimated prostate volume (mL) by ultrasonic tomography.
I-PSS items questioned • (1) Sensation of residual urine
The scores of (1) to (6) are as follows.
Not at all: 0 point, less than 1 time in 5: 1 point, less than 1 time in 2: 2 points, about 1 time in 2: 3 points, more than 1 time in 2: 4 points, almost always: 5 points. • (7) Nocturia
None: 0 point, 1 time: 1 point, 2 times: 2 points, 3 times: 3 points, 4 times: 4 points, 5 times or more: 5 points.
Very satisfied 0 point, satisfied: 1 point, generally satisfied: 2 points, neither satisfied nor unsatisfied: 3 points, a little unsatisfied: 4 points, unsatisfied: 5 points, very unsatisfied: 6 points.
Regarding the case of patients whose overall severity before administration was severe based on the criteria for judging overall severity (Non-patent Reference 3), changes in I-PSS total score and QOL score at the final evaluation were compared. The results are shown in Table 2 and Table 3, respectively.
Next, the effect of each administration group to improve the severity of I-PSS total score was evaluated in the patients of benign prostatic hyperplasia whose overall severity before administration was severe.

[2] = tested on: patients of benign prostatic hyperplasia who are subject to surgical therapy (overall severity moderate and severe); assay: Long-term administration test, 52 weeks (maximum flow rate Qmax); type: in vivo; conditions: 4 mg silodosin twice a day oral
Source text: Based on the results from a long-term administration test in patients of benign prostatic hyperplasia, effects of silodosin on objective symptoms of patients who are subject to surgical therapy were examined. As the patients who are subject to surgical therapy, patients whose overall severities before administration were “moderate” and “severe” according to the criteria for judging overall severity described in the above Table 1 were extracted.
Objects: 229 patients who are subject to surgical therapy for benign prostatic, hyperplasia
Analyzed groups: 101 severe patients (reduced to 2 mg/once in 9 cases among them), 128 moderate patients (reduced to 2 mg/once in 17 cases among them)

[3] = severity of I-PSS total score, severe patients
[4] = overall severity before administration severe, oral, silodosin 4 mg twice a day, tamsulosin hydrochloride 0.2 mg once a day

Row | Compound | Severity of subjective symptoms at the end, Mild (0-7), number of patients [1, 3] | Severity of subjective symptoms at the end, Moderate (8-19), % of patients [1, 3] | Severity of subjective symptoms at the end, Moderate (8-19), number of patients [1, 3] | Severity of subjective symptoms at the end, Severe (20-35), % of patients [1, 3] | Severity of subjective symptoms at the end, Severe (20-35), number of patients [1, 3] | Maximum flow rate (Qmax), change after 52 weeks (mean ± SD) ([2]; Moderate group) [mL/s] | Maximum flow rate (Qmax), change after 52 weeks (mean ± SD) ([2]; Moderate group, listed as silodosin) [mL/s] | Maximum flow rate (Qmax), change after 52 weeks (mean ± SD) ([2]; Severe group) [mL/s] | Maximum flow rate (Qmax), change after 52 weeks (mean ± SD) ([2]; Severe group, listed as silodosin) [mL/s] | Change in I-PSS at the end Mean ± standard deviation [1, 4] | Change in QOL at the end Mean ± SD [1, 4] | Severity of subjective symptoms at the end, Mild (0-7), % of patients [1, 3]
1 | C[C@H](Cc1cc2c(c(C(N)=O)c1)N(CCCO)CC2)NCCOc1ccccc1OCC(F)(F)F [Silodosin, (−)-1-(3-hydroxypropyl)-5-((2R)-2-{[2-({2-[(2,2,2-trifluoroethyl)oxy]phenyl}oxy)ethyl]amino}propyl)-2,3-dihydro-1H-indole-7-carboxamide] | 24 | (52.4%) | 33 | (9.5%) | 6 | 2.3 ± 5.3 | 2.3 | 3.2 ± 4.9 | 3.2 | – | – | –
2 | CCOc1ccccc1OCCN[C@H](C)Cc1ccc(OC)c(S(N)(=O)=O)c1 [Tamsulosin, tamsulosin hydrochloride] | 12 | (61.8%) | 34 | (16.4%) | 9 | – | – | – | – | −8.6 ± 6.2^3) N.S. | −1.5 ± 1.3^3) N.S. | (21.8%)
